Usually EC50 stands for the concentration at which the effect is half-maximal. As usually defined, the CC50 is the concentration at which the toxic effect on the cells reaches its halfway point.

Experimental findings from patent publication US8039614B2, “4' -C-substituted-2-haloadenosine derivative” (Yamasa Corporation, priority 2004, dated 2011) are described below.

Data set [1] has as its target T1, Calf-intestine-derived adenosine deaminase (Bos taurus, UniProt P56658).
T1 construct: Calf-intestine-derived adenosine deaminase; from tissue; host or cells: calf intestine
T1 sequence (P56658 1-363): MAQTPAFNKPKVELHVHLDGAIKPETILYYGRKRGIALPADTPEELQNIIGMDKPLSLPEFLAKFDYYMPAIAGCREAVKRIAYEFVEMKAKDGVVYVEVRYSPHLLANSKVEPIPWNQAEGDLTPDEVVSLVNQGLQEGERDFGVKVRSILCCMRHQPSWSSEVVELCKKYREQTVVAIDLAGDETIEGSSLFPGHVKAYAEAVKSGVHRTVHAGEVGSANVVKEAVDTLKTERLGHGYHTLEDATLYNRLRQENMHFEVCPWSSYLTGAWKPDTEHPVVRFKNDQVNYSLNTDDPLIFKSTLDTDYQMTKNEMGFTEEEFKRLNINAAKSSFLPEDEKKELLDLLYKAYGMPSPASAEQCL
The data set can be described thus: Stability against adenosine deaminase (HPLC). It counts as in vitro ADME. To be noted: 0.01 unit enzyme, 0.5 mM compound, Tris-HCl pH 7.5, 25° C., FIG. 1. As to the method: <Test Methods> Stability of Compound 4 Against Adenosine Deaminase Calf-intestine-derived adenosine deaminase (0.01 unit) was added to 0.5 ml of 0.5-mM compound 4 (50 mM Tris-HCl buffered solution (pH 7.5)), and the mixture was incubated at 25° C. A 5-μl aliquot of the reaction mixture was removed every 15 minutes, followed by analysis by means of HPLC (high performance liquid chromatography). The peak area of a test drug at reaction time 0 was taken as 100%, and the curve was monitored over time. The HPLC analysis was performed under the following conditions. Column: YMC-Pack ODS-A (250×6.0 mm) Eluent: 15% MeCN-50 mM TEAA Flow rate: 1 mL/min. Temperature: 30° C. Detection: 260 nm

Data set [2] has as its system HIV-1 MDR drug-resistant strain. In words: MAGI assay using HeLa CD4/LTR-beta-Gal cells, drug-resistant strain MDR. Type of data set: cell-based. To be noted: Human immunodeficiency virus 1, HeLa, 48 h, read-out: Anti-HIV-1MDR activity (EC50, μM). As to the method:
(§1) • 1. A test agent (100 μl) is diluted on a 96-well microplate. MT-4 cells infected with HIV-1 (IIIb strain; 100 TCID50) and non-infected MT-4 cells are added to the microplate such that the number of cells in each well becomes 10,000. The cells are cultured at 37° C. for five days. • 2. MTT (20 μl, 7.5 mg/ml) is added to each well, and the cells are further cultured for 2-3 hours. • 3. The cultured medium (120 μl) is sampled, and MTT terminating solution (isopropanol containing 4% Triton X-100 and 0.04N HCl) is added to the sample. The mixture is stirred to dissolve formed formazan. The absorbance at 540 nm of the solution is measured. Since the absorbance is proportional to the number of viable cells, the test agent concentration at which a half value of the absorbance is measured in a test using infected MT-4 cells represents EC50, whereas the test agent concentration at which a half value of the absorbance is measured in a test using non-infected MT-4 cells represents CC50. 2) MAGI Assay Using HeLa CD4/LTR-beta-Gal Cells • 1. HeLa CD4/LTR-beta-Gal cells are added to 96 wells such that the number of cells in each well is 10,000. After 12-24 hours, the culture medium is removed, and a diluted test agent (100 μl) is added. • 2. A variety of HIV strains (wild strain: WT, drug-resistant strain: MDR and M184V; each being equivalent to 50 TCID50) are added, and the cells are further cultured for 48 hours. • 3. The cells are fixed for five minutes using PBS supplemented with 1% formaldehyde and 0.2% glutaraldehyde. • 4. After the fixed cells are washed with PBS three times, the cells are stained with 0.4 mg/ml X-Gal for one hour, and the number of blue-stained cells of each well is counted under a transmission stereoscopic microscope. The test agent concentration at which blue-stained cells decrease to 50% in number represents EC50. <Results> Anti-human-immunodeficiency Virus (HIV) Activity and Cytotoxicity 1) MTT Method Using MT-4 Cells

For data set [3], the system named is HIV-1 (IIIb strain). In words: MTT method using MT-4 cells infected with HIV-1 (anti-HIV activity). It counts as cell-based. To be noted: for EC50: MT-4 cells infected with HIV-1 IIIb, MTT, five days; for Selectivity Index (CC50/EC50): MT-4 cells. As to the method:
(§2) 1) MTT Method Using MT-4 Cells
as §1
In general terms: Tetrazolium dyes change colour on reduction, which living cells bring about.

Data set [4] can be described thus: Stability under acidic conditions (HPLC). It counts as physicochemical. To be noted: NaCl/hydrochloric acid test solution, 37° C. As to the method: <Test Methods> Stability of Compound 4 Under Acidic Conditions
Compound 4 (2.9 mg) or 2′,3′-dideoxyadenosine (ddAdo: 2.4 mg) was dissolved in 10 ml of a 37° C. test solution (which had been prepared by adding 2.0 g of sodium chloride and 7.0 ml of hydrochloric acid into water to make a solution of 1,000 ml), followed by incubation at the same temperature (37° C.).
A 100-μl aliquot of the reaction mixture was removed therefrom and neutralized with aqueous 0.1-N sodium hydroxide solution, followed by analysis of 5 μl by means of HPLC. The HPLC analysis conditions are the same as those employed in Test Example 2.

Data set [5] deals with HIV-1 wild strain (WT). In words: MAGI assay using HeLa CD4/LTR-beta-Gal cells, wild strain. Type of data set: cell-based. To be noted: Human immunodeficiency virus 1, 48 hours, read-out: Anti-HIV-1wild activity (EC50). As to the method:
as §1

The test system of data set [6] is HIV-1 M184V drug-resistant strain. The data set can be described thus: MAGI assay using HeLa CD4/LTR-beta-Gal cells, drug-resistant strain M184V. Type of data set: cell-based. To be noted: Human immunodeficiency virus 1, HeLa, 48 h, read-out: Anti-HIV-1M184V activity (EC50, μM). As to the method: as §1
The subject of data set [7] is ICR mice. In words: In vivo acute toxicity test in ICR mice. To be noted: for Survisors/Total: ICR mice, seven days. As to the method:
<Test methods> In vivo Acute Toxicity Test of Compound 4
Groups of ICR mice (6 weeks of age, male), each group consisting of 8 mice, were given a test drug (Compound 4; dissolved or suspended in saline) via oral route or intravenous injection in amounts up to 100 mg/kg. The occurrence of death and body weight of each mouse were monitored for seven days.

Data set [8] in a line: MTT method using non-infected MT-4 cells (cytotoxicity). Type of data set: cell-based. To be noted: human. As to the method: as §2, §1
Data set [9] has as its system non-infected MT-4 cells. Described as above. Type of data set: cell-based. To be noted: non-infected MT-4 cells, MTT, five days. As to the method: as §2, §1
The mark [10] stands for this setting: Human immunodeficiency virus 1, MT4, 120 h.

In the case of `C#C[C@]1(CO)O[C@@H](n2cnc3c(N)nc(F)nc32)C[C@@H]1O` [Compound 4, 2′-deoxy-4′-C-ethynyl-2-fluoroadenosine], the “Deamination by adenosine deaminase” value in data set [1] is on record as “not at all deaminated”. The EC50 in data set [2] is 0.000145 µM; in data set [3] (setting [10]), 0.068 nM; in data set [5] it was 0.2 nM; in [6], 0.00311 µM. The “Selectivity Index (CC50/EC50)” value in [3] is listed as 110,000. Further, the “Degradation under acidic conditions” value in data set [4] (FIG. 2) is recorded as “degraded very slowly”. Further, the Survisors/Total in [7] (Intravenous, 1 mg/kg single dose) was 8/8; in data set [7] (Intravenous, 3 mg/kg single dose) it was 8/8; in data set [7] (Intravenous, 10 mg/kg single dose), 8/8; in [7] (Intravenous, 30 mg/kg single dose), 8/8; in [7] (Intravenous, 100 mg/kg single dose), 8/8; in [7] (Oral, 1 mg/kg single dose), 8/8. Further, the Survisors/Total is recorded as 8/8 in [7] (Oral, 3 mg/kg single dose); 8/8 in [7] (Oral, 10 mg/kg single dose); 8/8 in data set [7] (Oral, 30 mg/kg single dose); 8/8 in data set [7] (Oral, 100 mg/kg single dose). Also, the “Acute toxicity in mice (conclusion)” value in [7] (mouse, in vivo) is “does not exhibit acute toxicity”. Besides, the “Survival of mice” value in data set [7] (mouse, in vivo) is “survived”. The “Weight loss and pathological symptoms such as diarrhea” value in data set [7] (mouse, in vivo) was “not observed”. Moreover, the CC50 at 5 days in data set [8] is 7500 nM.
As for `N#C[C@]1(CO)O[C@@H](n2cnc3c(N)nc(F)nc32)C[C@@H]1O` [Compound 8, 4′-C-cyano-2′-deoxy-2-fluoroadenosine], the concentration giving a half-maximal response (EC50) in data set [2] is 0.95 µM; in [5], 120 nM; in data set [6], 4.8 µM.
For `C#C[C@]1(CO)O[C@@H](n2cnc3c(N)nc(Cl)nc32)C[C@@H]1O` [Compound 9, 2-chloro-2′-deoxy-4′-C-ethynyladenosine], the values for the EC50 in data set [2], in [5] and in data set [6] were 0.0084 µM, 1.9 nM and 0.01 µM, respectively.
`C#C[C@]1(CO[PH](=O)O)O[C@@H](n2cnc3c(N)nc(F)nc32)C[C@H]1O` [Compound 10, 2′-deoxy-4′-C-ethynyl-2-fluoroadenosine 5′-H-phosphonate]: the concentration for a half-maximal effect (EC50) in [2] is 0.003 µM; in data set [5] it was 3.4 nM; in [6], 0.062 µM.
For `C#C[C@@]1(CO)C=C[C@H](n2cnc3c(N)nc(F)nc32)O1` [Compound 13, 2′,3′-didehydro-2′,3′-dideoxy-4′-C-ethynyl-2-fluoroadenosine] the same measures were 0.15 µM, 800 nM and 1.8 µM.
For `C#C[C@]1(CO)O[C@@H](n2cnc3c(N)ncnc32)C[C@@H]1O` [EdAdo, 2′-deoxy-4′-C-ethynyladenosine, reference compound], in [1], the “Deamination by adenosine deaminase” value was “deaminated”. Also, the EC50 in data set [2] was determined as 0.0062 µM; in data set [3] (setting [10]) it was 9.8 nM; in data set [5], 8 nM; in data set [6], 0.047 µM. The “Selectivity Index (CC50/EC50)” value in [3] is listed as 1,630. Further, in data set [8], half-maximal cytotoxicity (CC50 at 5 days) was put at 16000 nM.
In turn, `C#C[C@]1(CO)O[C@@H](n2cnc3c(N)nc(N)nc32)C[C@@H]1O` [EdDAP, 9-(4-C-ethynyl-2-deoxy-ribopentofuranosyl)-2,6-diaminopurine] displayed an EC50 in data set [3] of 0.34 nM. Also, the CC50 in [9] is 900 nM.
Consider `Nc1ncnc2c1ncn2[C@H]1CC[C@@H](CO)O1` [ddAdo, 2′,3′-dideoxyadenosine, reference compound], for which, in data set [4] (in about five minutes, FIG. 3), the “Fraction degraded under acidic conditions” value is “About 98%”.
